Laboratory results published in patent publication US20140357655A1, “SPIROINDOLINE DERIVATIVES AS GONADOTROPIN- RELEASING HORMONE RECEPTOR ANTAGONISTS” (Bayer Intellectual Property GmbH, priority 2012, published 2014).

Columns and labels:
human GnRHR = biological target: T1, human GnRHR (Homo sapiens, UniProt P30968); experiment: Tag-Lite receptor binding assay; details: Hek293 cells transiently transfected with human GnRHR; green-labelled GnRHR binding peptide; read-out: Potency in receptor binding assay using TAG-LITE technology, given as IC50
T1 construct: host or cells: HEK293 (transient transfection), purchased as frozen labelled cells
T1 sequence (P30968 1-328): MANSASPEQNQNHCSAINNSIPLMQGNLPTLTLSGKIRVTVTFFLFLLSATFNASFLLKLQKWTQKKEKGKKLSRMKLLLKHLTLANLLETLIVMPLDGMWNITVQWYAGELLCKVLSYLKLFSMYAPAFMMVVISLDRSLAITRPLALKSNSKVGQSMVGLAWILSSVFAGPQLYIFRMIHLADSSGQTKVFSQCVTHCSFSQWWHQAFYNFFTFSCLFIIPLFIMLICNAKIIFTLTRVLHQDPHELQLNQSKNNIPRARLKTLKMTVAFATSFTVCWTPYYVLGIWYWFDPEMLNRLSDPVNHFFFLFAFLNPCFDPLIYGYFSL
Source text: This binding assay is based on the fluorescence resonance energy transfer between fluorescence donor labelled human GnRHR and a green-labelled GnRHR binding peptide. Compounds interfering with the ligand binding side of the human GnRHR will replace the labelled peptide resulting in a signal decrease. The assay principle was established by Cisbio Bioassays (Bagnols-sur-Cèze Cedex, France) and further details are available on their homepage.
The assay procedure was further optimized for use in-house with reduced assay volumes. Frozen Hek293 cells, transiently transfected with human GnRHR and Terbium-labelling of the receptor, were supplied by Cisbio Bioassays as well as Tag-Lite buffer and green-labelled GnRHR binding peptide. Cells were thawed and transferred to cold Tag-Lite buffer. A volume of 8 μl of this cell suspension were added to 100 nl of a 160-fold concentrated solution of the test compound in DMSO pre-dispensed in a well of a white low-volume 384-well microtiter plate (Greiner Bio-One, Frickenhausen, Germany). The mixture was incubated for 5 min at room temperature. In the next step either 4 μl Tag-Lite buffer or as control 4 μl of an exceeding amount unlabelled binding peptide in Tag-Lite buffer were transferred to the mixture. The green-labelled GnRHR binding peptide was added in a final step at EC50 in a volume of 4 μl Tag-Lite buffer. After an incubation of 1 h at room temperature plates were measured in a microplate reader, e.g. a PHERAstar (BMG Labtechnologies, Offenburg, Germany) by using a specific optic module.
A ratio from the fluorescence emissions at 520 nm (green fluorescence) and at 490 nm (background signal of Terbium-labelled GnRHR) was calculated and the data were normalized (reaction without test compound=0% inhibition of binding of green-labelled peptide; reaction without test compound with exceeding amount unlabelled binding peptide=100% inhibition of binding of green-labelled peptide). On the same microtiter plate, compounds were tested at 10 different concentrations in the range of 12.5 μM to 0.64 nM (12.5 μM, 4.2 μM, 1.4 μM, 0.46 μM, 0.15 μM, 51 nM, 17 nM, 5.7 nM, 1.9 nM and 0.64 nM; dilution series prepared before the assay at the level of the 160-fold conc. stock solutions by serial 1:3 dilutions in 100% DMSO) in duplicate values for each concentration. By using an in-house software, the IC50 values were calculated by a 4 parameter fit.

human GnRH receptor = biological target: T2, human GnRH receptor (Homo sapiens, UniProt P30968); experiment: IP-One HTRF assay with buserelin (at EC80) stimulation; assay type: cell-based; details: CHO cells stably expressing human GnRH receptor, read-out: Potency in IP-One HTRF assay, given as IC50
T2 sequence (P30968 1-328): T1 sequence (P30968 1-328)
In short: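 CHO cells stably expressing human GnRH receptor, preincubated 1 h at 37° C with IP1-d2, were exposed to compound and buserelin at EC80 for 1 h at 37° C. After lysis with Tb-anti-IP1 antibody (1 h, 22° C), 665/620 nm HTRF ratio read; 10 concentrations, 20 μM–1 nM, duplicates, 4-parameter IC50.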

| SMILES | IC50 (human GnRHR) | IC50 (human GnRH receptor) |
| --- | --- | --- |
| O=C(Nc1ccccc1Cl)c1ccc2c(c1)C1(CCS(=O)(=O)CC1)C(C1CC1)N2S(=O)(=O)c1ccc(F)cc1 (stereo not drawn) [Example 67, N-(2-chlorophenyl)-2-cyclopropyl-1-[(4-fluorophenyl)sulfonyl]-1,2,2′,3′,5′,6′-hexahydrospiro[indole-3,4′-thiopyran]-5-carboxamide 1′,1′-dioxide] | 154 nM | 113 nM |
| O=C(NCc1ccccc1Cl)c1ccc2c(c1)C1(CCS(=O)(=O)CC1)C(C1CC1)N2S(=O)(=O)c1ccc(F)cc1 (single isomer, unassigned) [Example 18.1, N-(2-chlorobenzyl)-2-cyclopropyl-1-[(4-fluorophenyl)sulfonyl]-1,2,2′,3′,5′,6′-hexahydrospiro[indole-3,4′-thiopyran]-5-carboxamide 1′,1′-dioxide] | 11 nM | 26 nM |
| O=C(NCc1ccccc1Cl)c1ccc2c(c1)C1(CCS(=O)(=O)CC1)C(C1CC1)N2S(=O)(=O)c1cccc(OC(F)F)c1 (stereo not drawn) [Example 86, N-(2-chlorobenzyl)-2-cyclopropyl-1-{[3-(difluoromethoxy)phenyl]sulfonyl}-1,2,2′,3′,5′,6′-hexahydrospiro[indole-3,4′-thiopyran]-5-carboxamide 1′,1′-dioxide] | – | 196 nM |
| N#Cc1ccc(S(=O)(=O)N2c3ccc(C(=O)NCc4ncccc4Cl)cc3C3(CCS(=O)(=O)CC3)C2C2CC2)cc1 (single isomer, unassigned) [Example 70.2, N-[(3-chloropyridin-2-yl)methyl]-1-[(4-cyanophenyl)sulfonyl]-2-cyclopropyl-1,2,2′,3′,5′,6′-hexahydrospiro[indole-3,4′-thiopyran]-5-carboxamide 1′,1′-dioxide] | – | 202 nM |
| COc1cccc(S(=O)(=O)N2c3ccc(C(=O)NCc4ccccc4Cl)cc3C3(CCS(=O)(=O)CC3)C2C2CC2)c1 (single isomer, unassigned) [Example 44.1, N-(2-chlorobenzyl)-2-cyclopropyl-1-[(3-methoxyphenyl)sulfonyl]-1,2,2′,3′,5′,6′-hexahydrospiro[indole-3,4′-thiopyran]-5-carboxamide 1′,1′-dioxide] | – | 25 nM |
| C=CCC1N(S(=O)(=O)c2ccc(F)cc2)c2ccc(C(=O)NCc3ncccc3Cl)cc2C12CCS(=O)(=O)CC2 (stereo not drawn) [Example 57, N-[(3-chloropyridin-2-yl)methyl]-1-[(4-fluorophenyl)sulfonyl]-2-(prop-2-en-1-yl)-1,2,2′,3′,5′,6′-hexahydrospiro[indole-3,4′-thiopyran]-5-carboxamide 1′,1′-dioxide] | – | 71 nM |
| O=C(Nc1ccc2c(c1)C1(CCS(=O)(=O)CC1)C(C1CC1)N2S(=O)(=O)c1ccc(F)cc1)C1CC1 (stereo not drawn) [Example 97, N-{2-Cyclopropyl-1-[(4-fluorophenyl)sulfonyl]-1′,1′-dioxido-1,2,2′,3′,5′,6′-hexahydrospiro[indole-3,4′-thiopyran]-5-yl}cyclopropanecarboxamide] | – | 2230 nM |
| COc1cccc(S(=O)(=O)N2c3ccc(C(=O)NCc4ccc(F)cc4Cl)cc3C3(CCS(=O)(=O)CC3)C2C2CC2)c1 (stereo not drawn) [Example 46, N-(2-chloro-4-fluorobenzyl)-2-cyclopropyl-1-[(3-methoxyphenyl)sulfonyl]-1,2,2′,3′,5′,6′-hexahydrospiro[indole-3,4′-thiopyran]-5-carboxamide 1′,1′-dioxide] | – | 81 nM |
| N#Cc1cccc(S(=O)(=O)N2c3ccc(C(=O)NCc4ccccc4Cl)cc3C3(CCS(=O)(=O)CC3)C2C2CC2)c1 (stereo not drawn) [Example 76, N-(2-chlorobenzyl)-1-[(3-cyanophenyl)sulfonyl]-2-cyclopropyl-1,2,2′,3′,5′,6′-hexahydrospiro[indole-3,4′-thiopyran]-5-carboxamide 1′,1′-dioxide] | – | 44 nM |
| O=C(NCc1ccc(F)cc1Cl)c1ccc2c(c1)C1(CCS(=O)(=O)CC1)C(C1CC1)N2S(=O)(=O)c1ccc(F)cc1 (stereo not drawn) [Example 16, N-(2-chloro-4-fluorobenzyl)-2-cyclopropyl-1-[(4-fluorophenyl)sulfonyl]-1,2,2′,3′,5′,6′-hexahydrospiro[indole-3,4′-thiopyran]-5-carboxamide 1′,1′-dioxide] | – | 74 nM |
| O=C(NC1CCOc2ccccc21)c1ccc2c(c1)C1(CCS(=O)(=O)CC1)C(C1CC1)N2S(=O)(=O)c1ccc(F)cc1 (stereo not drawn) [Example 33, 2-cyclopropyl-N-(3,4-dihydro-2H-chromen-4-yl)-1-[(4-fluorophenyl)sulfonyl]-1,2,2′,3′,5′,6′-hexahydrospiro[indole-3,4′-thiopyran]-5-carboxamide 1′,1′-dioxide] | – | 958 nM |
| O=C(NCc1ncccc1C(F)(F)F)c1ccc2c(c1)C1(CCS(=O)(=O)CC1)C(C1CC1)N2S(=O)(=O)c1cccc(OC(F)(F)F)c1 (stereo not drawn) [Example 84, 2-cyclopropyl-1-{[3-(trifluoromethoxy)phenyl]sulfonyl)-N-{[3-(trifluoromethyl)pyridin-2-yl]methyl}-1,2,2′,3′,5′,6′-hexahydrospiro[indole-3,4′-thiopyran]-5-carboxamide 1′,1′-dioxide] | – | 309 nM |
| CC1N(S(=O)(=O)c2ccc(F)cc2)c2ccc(C(=O)NCc3ccccc3Cl)cc2C12CCOCC2 (stereo not drawn) [Example 2, N-(2-chlorobenzyl)-1-[(4-fluorophenyl)sulfonyl]-2-methyl-1,2,2′,3′,5′,6′-hexahydrospiro[indole-3,4′-pyran]-5-carboxamide] | – | 189 nM |
| CC1N(S(=O)(=O)c2ccc(F)cc2)c2ccc(C(=O)Nc3cccc(S(=O)(=O)N(C)C)c3)cc2C12CCOCC2 (stereo not drawn) [Example 11, N-[3-(N,N-dimethylsulfamoyl)phenyl]-1-[(4-fluorophenyl)sulfonyl]-2-methyl-1,2,2′,3′,5′,6′-hexahydrospiro[indole-3,4′-pyran]-5-carboxamide] | – | 378 nM |
| COc1cccc(S(=O)(=O)N2c3ccc(C(=O)NCc4ccccc4Cl)cc3C3(CCS(=O)(=O)CC3)C2C2CC2)c1 (single isomer, unassigned) [Example 44.2, N-(2-chlorobenzyl)-2-cyclopropyl-1-[(3-methoxyphenyl)sulfonyl]-1,2,2′,3′,5′,6′-hexahydrospiro[indole-3,4′-thiopyran]-5-carboxamide 1′,1′-dioxide] | – | 302 nM |
| COc1cccc(S(=O)(=O)N2c3ccc(C(=O)Nc4cccc(C(=O)O)c4)cc3C3(CCS(=O)(=O)CC3)C2C2CC2)c1 (stereo not drawn) [Example 50, 3-[({2-cyclopropyl-1-[(3-methoxyphenyl)sulfonyl]-1′,1′-dioxido-1,2,2′,3′,5′,6′-hexahydrospiro[indole-3,4′-thiopyran]-5-yl}carbonyl)amino]benzoic acid] | – | 54 nM |
| CC1N(S(=O)(=O)c2ccc(F)cc2)c2ccc(C(=O)NCc3ncc(F)cc3Cl)cc2C12CCS(=O)(=O)CC2 (stereo not drawn) [Example 28, N-[(3-chloro-5-fluoropyridin-2-yl)methyl]-1-[(4-fluorophenyl)sulfonyl]-2-methyl-1,2,2′,3′,5′,6′-hexahydrospiro[indole-3,4′-thiopyran]-5-carboxamide 1′,1′-dioxide] | – | 405 nM |
| COc1cccc(S(=O)(=O)N2c3ccc(C(=O)NCc4ccc(F)cc4Cl)cc3C3(CCS(=O)(=O)CC3)C2C2CC2)c1 (single isomer, unassigned) [Example 46.1, N-(2-chloro-4-fluorobenzyl)-2-cyclopropyl-1-[(3-methoxyphenyl)sulfonyl]-1,2,2′,3′,5′,6′-hexahydrospiro[indole-3,4′-thiopyran]-5-carboxamide 1′,1′-dioxide] | – | 50 nM |
| N#Cc1cccc(S(=O)(=O)N2c3ccc(C(=O)Nc4ccon4)cc3C3(CCS(=O)(=O)CC3)C2C2CC2)c1 (single isomer, unassigned) [Example 80.1, 1-[(3-cyanophenyl)sulfonyl]-2-cyclopropyl-N-(1,2-oxazol-3-yl)-1,2,2′,3′,5′,6′-hexahydrospiro[indole-3,4′-thiopyran]-5-carboxamide 1′,1′-dioxide] | – | 315 nM |
